Data set [1] relates to ApoB-100 mRNA. As to the kind of experiment: Serum total cholesterol after dosing apoB antisense oligonucleotides. The data set is classed as in vivo, mouse. The conditions noted are these: for reduction of serum cholesterol: dosing 3*1 mg/kg. As to the method: Total cholesterol level is measured in plasma using a colometric assay Cholesterol CP from ABX Pentra. The cholesterol is measured following enzymatic hydrolysis and oxidation. 21.5 μL water was added to 1.5 μL plasma. 250 μL reagent is added and within 5 min the cholesterol content is measured at a wavelength of 540 nm. Measurements on each animal was made in duplicates. The sensitivity and linearity was tested with 2 fold diluted control compound (ABX Pentra N control). The relative Cholesterol level was determined by subtraction of the background and presented relative to the cholesterol levels in plasma of saline treated mice.
(§1) In this study 5 mg/kg/dose were dosed on 3 consecutive days (one dose/day i.v.) and animals were sacrificed 24 hours after last dosing. At sacrifice, liver and retro orbital sinus blood was sampled. Serum was prepared from blood for analysis of cholesterol. RNA was isolated from the liver and the expression of ApoB-100 mRNA was measured.
(§2) In this study three different concentrations (10, 15 and 25 mg/kg) of SEQ ID NO 17 (Table 1) and SEQ ID NO 34 (Table 1) were examined for duration of action on ApoB-100 mRNA expression and serum cholesterol level. SEQ ID NO 17 and SEQ ID NO 34 were given as a single dose of 10, 15 or 25 mg/kg to C57BL/6 female mice. Mice were sacrificed at different time points (1, 3, 5 and 8 days) after dosing; liver and serum were examined for ApoB-100 mRNA expression, liver oligonucleotide concentration and cholesterol and ALT, respectively.
Blood serum used to measure cholesterol was sampled at sacrifice. Twenty-four hours after dosing SEQ ID NO 17 serum total cholesterol was reduced 25-40%, and dosing SEQ ID NO 34 gave 40-55% reduction in total cholesterol. At day 3, the total cholesterol level was further reduced: SEQ ID NO 17 gave 70-90% reduction in a dose dependent manner after doing 10, 15 or 25 mg/kg. SEQ ID NO 34 reduced total cholesterol with 90-95% relative to the saline control group. At day 5-8 the total cholesterol level increased in all groups except the group dosed SEQ ID NO 17 at 10 mg/kg. (FIG. 4.).
Blood serum was sampled at sacrifice and used to measure cholesterol. The serum total cholesterol level reflected the mRNA expression of ApoB-100; dose dependent reduction with best effect at 5 days after dosing SEQ ID NO 17 at 1 and 2.5 mg/kg and similar effect at days 3, 5 and 8 after dosing 5 mg/kg (50% reduction). Dose dependent effect was also obtained after dosing SEQ ID NO 34 with best effect at day 3 after dosing 5 mg/kg (70% reduction) with following increase in cholesterol level (60% reduction at day 8 and 45% at day 16).
At sacrifice blood for serum was sampled and used to measure cholesterol.

The test system of data set [2] is ApoB-100 mRNA. The data set can be described thus: ApoB-100 mRNA expression in liver by qPCR after dosing apoB antisense oligonucleotides. The data set is classed as in vivo, mouse. On the procedure: as §1, §2
Liver sampled at sacrifice was analysed for ApoB-100 mRNA expression by qPCR. Data was normalized to Gapdh and presented relative to the data obtained by dosing saline. One dose of 10, 15 or 25 mg/kg of SEQ ID NO 17 or SEQ ID NO 34 was very effective to down regulate ApoB-100 mRNA in liver (FIG. 3).
A single dose of SEQ ID NO 17 (Table 1) and SEQ ID NO 34 (Table 1) at different concentrations was administered to C57BL/6J mice to find ED50 values for cholesterol. Duration of action was also included in this study, because we previously have seen that maximum effect of a single dose not always was achieved 24 hours after dosing. […] In this study we therefore have chosen lower concentrations (1, 2.5 and 5 mg/kg).
Liver sampled at sacrifice was analysed for ApoB-100 mRNA expression by qPCR. Data was normalized to Gapdh and presented relative to the data obtained by dosing saline. One dose of 10, 15 or 25 mg/kg of SEQ ID NO 17 or SEQ ID NO 34 was very effective to down regulate ApoB-100 mRNA in liver (FIG. 5).
The effect on ApoB-100 mRNA was examined at different days after dosing 1.0 or 5.0 mg/kg (one dose day 0) of the three LNA antisense oligonucleotides 12-mer SEQ ID NO 34 (Table 1), SEQ ID NO 26 (Table 1) 13-mer and 14-mer SEQ ID NO 17 (Table 1) all targeting ApoB mRNA.
Liver sampled at sacrifice was analysed for ApoB-100 mRNA expression by qPCR. Data was normalized to Gapdh and presented relative to the data obtained by dosing saline. Dosing 3* 1 or 5 mg/kg of SEQ ID NO 34, SEQ ID NO 17 or SEQ ID NO 26 was very effective to down regulate ApoB-100 mRNA in liver (FIG. 7). […] SEQ ID NO 17 dosed 3* 1 mg/kg/dose or 5 mg/kg/dose down regulated target mRNA with 50% and 70% respectively.

The subject of data set [3] is miR-122a. As to the kind of experiment: Melting temperature (Tm) of LNA anti-miR/miR-122a RNA duplex. The data set is classed as physicochemical, human. The conditions noted are these: Table 2; towards synthetic miR-122a RNA oligonucleotide with phosphorothioate linkages; PS backbone. On the procedure:
The melting temperatures were assessed towards the mature miR-122a sequence, using a synthetic miR-122a RNA oligonucleotide with phosphorothioate linkaged.
The LNA anti-miR/miR-122a oligo duplex was diluted to 3 μM in 500 μl RNase free H2O, which was then mixed with 500 μl 2× dimerization buffer (final oligo/duplex conc. 1.5 μM, 2× Tm buffer: 200 mM NaCl, 0.2 mM EDTA, 20 mM NaP, pH 7.0, DEPC treated to remove RNases). The mix was first heated to 95 degrees for 3 minutes, then allowed to cool at room temperature (RT) for 30 minutes.
Following RT incubation Tm was measured on Lambda 40 UV/VIS Spectrophotometer with peltier temperature progammer PTP6 using PE Templab software (Perkin Elmer). The temperature was ramped up from 20° C. to 95° C. and then down again to 20° C., continuously recording absorption at 260 nm. First derivative and local maximums of both the melting and annealing was used to assess melting/annealing point (Tm), both should give similar/same Tm values. For the first derivative 91 points was used to calculate the slope.

Data set [4] concerns miR-122a. As to the kind of experiment: miR-122a levels in mouse liver by microRNA specific qPCR. The data set is classed as in vivo. The conditions noted are these: 25 mg/kg i.v. on 3 successive days; 24 hour after last dose. On the procedure: Total RNA was extracted from liver samples as described above and analysed for miR-122a levels by microRNA specific QPCR.
In vivo study: Ten groups of animals (female C57/BL6; 3 mice per group) were treated in the following manner. Group 1 animals were injected with 0.2 ml saline by i.p. on day 0, day 2 and day 4. Groups 2-10 were dosed by i.p. with three different conc. (25 mg/kg, 5 mg/kg and 1 mg/kg) of either LNA antimiR-122a/SEQ ID NO: 61 (group 2-4), LNA antimir-122a/SEQ ID NO: 66 (group 5-7) or LNA antimir-122a/SEQ ID NO: 63 (group 8-10); the LNA antimir-122a sequences are given in the Table 1. All three LNA antimiR-122a oligonucleotides target the liver-specific miR-122a. The doses were calculated from the Day 0 body weights of each animal.
The animals were sacrificed 48 hours after last dose (Day 6), retro-orbital blood was collected in tubes containing EDTA and the plasma fraction harvested and stored frozen −80° C. for cholesterol analysis. At sacrifice livers were dissected and one portion was cut into 5 mm cubes and immersed in 5 volumes of ice-cold RNAlater. A second portion was snap frozen in liquid nitrogen and stored for cryo-sectioning.
Total RNA was extracted from liver samples using Trizol reagent according to the manufacturer's recommendations (Invitrogen, USA) and analysed for miR-122a levels by microRNA-specific QPCR according to the manufacturer's recommendations (Ambion, USA). […]
NMRI female mice were treated with indicated doses of LNA-antimiR (SEQ ID NO: 61) along with a mismatch control (m, SEQ ID NO: 65), saline and antagomir (SPC3595) for three consecutive days and sacrificed 24 hours after last dose (as in example 11 “old design”, n=5). miR-122 levels were analyzed by qPCR and normalized to the saline treated group.
C57BL/6J female mice were fed on high fat diet for 13 weeks before the initiation of the SEQ ID NO: 63 treatment. […] Both hypercholesterolemic and normal mice were treated i.p. twice weekly with 5 mg/kg SEQ ID NO: 63 and the corresponding mismatch control for a study period of 5½ weeks. Blood samples were collected weekly and total plasma cholesterol was measured during the entire course of the study. Upon sacrificing the mice, liver and blood samples were prepared for total RNA extraction, miRNA and mRNA quantification, assessment of the serum transaminase levels, and liver histology.
The miR-122 and let-7a microRNA levels were quantified with TaqMan microRNA Assay (Applied Biosystems) following the manufacturer's instructions. The RT reaction was diluted ten times in water and subsequently used for real time PCR amplification according to the manufacturer's instructions. A two-fold cDNA dilution series from liver total RNA of a saline-treated animal or mock transfected cells cDNA reaction (using 2.5 times more total RNA than in samples) served as standard to ensure a linear range (Ct versus relative copy number) of the amplification. Applied Biosystems 7500 or 7900 real-time PCR instrument was used for amplification.
(Real-time PCR tracks product formation cycle by cycle.)

Strand notation (5' to 3'): a small letter for the sugar, then the base; units joined by * are phosphorothioate-linked, units joined directly phosphodiester-linked; [ ] holds rarer units or linkages, { } end groups; capitals alone tell only the bases. l = locked nucleic acid (LNA); [5mC] = 5-methylcytosine; d = 2'-deoxy (DNA)

Turning to “5′-Gs^MeCsaststsgsgstsastsTs^MeC-3′ (antisense lG*l[5mC]*dA*dT*dT*dG*dG*dT*dA*dT*lT*l[5mC]) [SEQ ID NO: 34]”, the “effect on serum total cholesterol (in words)” value in data set [1] (3 doses of 5 mg/kg/dose i.v., day 3, oligos of different length compared) is reported as “the best or the most potent effect”. For the same substance, the “reduction of serum cholesterol” value in data set [1] is 60%. Moreover, the “reduction of serum total cholesterol” value in data set [1] (single dose 5 mg/kg, day 3) is 70%; in data set [1] (single dose 5 mg/kg, day 8) it was 60%; in data set [1] (single dose 5 mg/kg, day 16), 45%; in data set [1] (single dose of 10, 15 or 25 mg/kg, 24 hours after dosing), 40-55%; in data set [1] (single dose of 10, 15 or 25 mg/kg, day 3) it was 90-95%. For the same substance, in data set [2] (10, 15 or 25 mg/kg SEQ ID NO 34, 25 mg/kg SEQ ID NO 17), the “ApoB-100 mRNA down-regulation (in words)” value is listed as “completely down-regulated”. The “down regulation of ApoB-100 mRNA” value was “about 75%” in data set [2] (liver, 3 doses of 5 mg/kg/dose i.v. on consecutive days, 24 hours after last dosing); 60% in data set [2] (liver, dosing 3*1 mg/kg i.v.); 90% in data set [2] (liver, dosing 3*5 mg/kg i.v.); “about 75%” in data set [2] (single dose 5 mg/kg, days 5-16). Further, the “down regulation of ApoB-100 mRNA relative to saline” value in data set [2] (liver, single dose of 10, 15 or 25 mg/kg, C57BL/6 female mice, 24 hours after dosing) is on record as 90-95%. Moreover, the “reduction of ApoB-100 mRNA expression” value in data set [2] (single dose 2.5 mg/kg, day 8) is 75%. For the same substance, in data set [2] (single dose 5 mg/kg, day 16), the “ApoB-100 mRNA down regulation” value is given as 75%.

As for “5′-Gs^MeCsaststsgsgstsastsTs^MeCsA-3′ (antisense lG*l[5mC]*dA*dT*dT*dG*dG*dT*dA*dT*lT*l[5mC]*lA) [SEQ ID NO: 26]”, in data set [1], the “reduction of serum cholesterol” value is recorded as 60%. In addition, the “down regulation of ApoB-100 mRNA” value in data set [2] (liver, dosing 3*1 mg/kg i.v.) is on record as 60%; in data set [2] (liver, dosing 3*5 mg/kg i.v.) it was 90%.

Take “5′-cCatTgtCacActCca-3′ (antisense dC*l[5mC]*dA*dT*lT*dG*dT*l[5mC]*dA*dC*lA*dC*dT*l[5mC]*dC*dA) [SEQ ID NO: 60]”: the “Tm (° C.)” value in data set [3] was determined as 75 °C.

For “5′-ccAttGtcTcaAtcCa-3′ (antisense dC*dC*lA*dT*dT*lG*dT*dC*lT*dC*dA*lA*dT*dC*l[5mC]*dA) [SEQ ID NO: 65, reference compound]”, the “Tm (° C.)” value in data set [3] was 46 °C. Further, the “miR-122a inhibition in liver (in words)” value in data set [4] was “no miR-122a inhibition was detected”.

These data come from patent US8440637B2, “Combination treatment for the treatment of hepatitis C virus infection” (priority 2007, dated 2013).
